Measurements as given in US10613104B2, “Assay to determine anticoagulants in blood or blood plasma” (ZAFENA AB, priority 2014, dated 2020).

System: prothrombin time (PT) of normal citrated blood
Assay: Three wet-chemistry Owren PT methods (Simple Simon PT) on normal citrated blood with added apixaban
Assay type: biochemical
Procedure: Experimental work was performed with the commercially available ambient room temperature coagulation instrument, Simple Simon P T Zafena A B, Linköping, Sweden, with functions described in EP 1 636 595 B2. One instrument or reader was used for each PT-method. Alternatively, the same instrument could be used for all PT-methods.
The three instruments were used together standing next to one another on a laboratory bench in thermal equilibrium with the ambient room temperature of the laboratory.
The PT-reagent was the one delivered together with lot N223M of the Simple Simon PT product, a reagent of Owren-type that thus contains effective amounts of thromboplastin, fibrinogen and FV (the thromboplastin of rabbit brain origin and the fibrinogen and the FV of bovine blood plasma origin). Other Owren type reagents could also be used.
The reagent was in portions of 200 μL to which sample, citrated blood or citrated blood plasma, was added and mixed. The addition was by an end-to-end plastic capillary mounted at one end of a tubular body with a displacement mechanism in the other end, this to allow convenient mixing of sample and reagent. Such Mixxocaps with 10 μL capillaries are supplied with the Simple Simon PT product. To perform the experiments described, some Mixxocaps were fitted with 20 μL capillaries, or 5 μL capillaries instead of the 10 μL capillaries with which they were supplied by the manufacturer.
These blood samples and a blood sample with an INR 2.3 were analyzed by Simple Simon PT using sample volumes of 20 μL, 10 μL and 5 μL in 200 μL reagents. […]

[1] = apixaban 63 μg/L in normal citrated blood
[2] = apixaban 125 μg/L in normal citrated blood
[3] = apixaban 250 μg/L in normal citrated blood
[4] = apixaban 500 μg/L in normal citrated blood
[5] = apixaban 714 μg/L in normal citrated blood
[6] = apixaban 1000 μg/L in normal citrated blood

## COc1ccc(-n2nc(C(N)=O)c3c2C(=O)N(c2ccc(N4CCCCC4=O)cc2)CC3)cc1 [apixaban]
[1]
  INR 10 μL sample: 1.19
  INR 20 μL sample: 1.41
  INRc 5 μL sample: 1.06
  INRc 10 μL sample: 1.12
  INRc 20 μL sample: 1.21
  INRo: 0.96
  ΔINRc 10 μL − 5 μL: 0.06
  ΔINRc 20 μL − 5 μL: 0.15
[2]
  INR 10 μL sample: 1.32
  INR 20 μL sample: 1.75
  INRc 5 μL sample: 1.16
  INRc 10 μL sample: 1.26
  INRc 20 μL sample: 1.49
  INRo: 1.02
  ΔINRc 10 μL − 5 μL: 0.10
  ΔINRc 20 μL − 5 μL: 0.32
[3]
  INR 5 μL sample: 1.32
  INR 10 μL sample: 1.64
  INR 20 μL sample: 2.61
  INRc 5 μL sample: 1.39
  INRc 10 μL sample: 1.60
  INRc 20 μL sample: 2.18
  INRo: 1.07
  ΔINRc 10 μL − 5 μL: 0.21
  ΔINRc 20 μL − 5 μL: 0.79
[4]
  INR 5 μL sample: 1.66
  INR 10 μL sample: 2.27
  INR 20 μL sample: 4.58
  INRc 5 μL sample: 1.81
  INRc 10 μL sample: 2.29
  INRc 20 μL sample: 3.73
  INRo: 1.09
  ΔINRc 10 μL − 5 μL: 0.48
  ΔINRc 20 μL − 5 μL: 1.92
[5]
  INR 5 μL sample: 1.87
  INR 10 μL sample: 2.78
  INR 20 μL sample: 6.06
  INRc 5 μL sample: 2.08
  INRc 10 μL sample: 2.86
  INRc 20 μL sample: 4.88
  INRo: 0.91
  ΔINRc 10 μL − 5 μL: 0.78
  ΔINRc 20 μL − 5 μL: 2.80
[6]
  INR 10 μL sample: 3.50
  INR 20 μL sample: 8.76
  INRc 5 μL sample: 2.51
  INRc 10 μL sample: 3.69
  INRc 20 μL sample: 6.94
  INRo: 0.74
  ΔINRc 10 μL − 5 μL: 1.16
  ΔINRc 20 μL − 5 μL: 4.43
